From patent US20110189669A1, “METHODS OF AIDING IN THE DIAGNOSIS OF PROSTATE CANCER” (IMPERIAL INNOVATIONS LIMITED, priority 2008, published 2011)

Assays:
GNMT = details: cited from earlier work
LNCaP cells [1] = test: LNCaP cell growth (Sulphorhodamine B cell staining / cell numbers); format: cell-based
Procedure: A) LNCaP cell growth is stimulated by the synthetic androgen R1881 (1 nM), as measured using the Sulphorhodamine B cell staining assay.
LNCaP cells were cultured in the absence or presence of 1 nM R1881 and increasing concentrations of SAH for 6 days at which point cell numbers were measured.
Biological methylation reactions which utilise S-adenosylmethionine (SAM) as a methyl donor encompass several key cellular and metabolic processes and include the methylation of phospholipids, proteins, DNA and RNA. This class of reaction is carried out by methyltransferases that are represented by a diverse group of distantly related proteins (8-10), with domains that catalyse the transfer of the methyl group from SAM to a molecular substrate, together with the in-situ generation of SAH. For most methyltransferases, SAH is known to have a higher affinity than SAM for the catalytic site, thereby acting as a potent feedback inhibitor of methyltransferase activity within the cell. […] In most tissues, the balance between SAM and SAH and the subsequent regulation of global methylation activity resides in the ability to rapidly metabolise SAH through the enzyme S-adenosylhomocysteine hydrolase (SAH hydrolase). […] GNMT is a phylogenetically conserved enzyme (12) that methylates Glycine to produce N-Methyl Glycine (sarcosine), which is known to be largely physiologically inert, and also generates SAH. […]

LNCaP cells [2] = test: gene expression microarray of androgen-regulated genes in LNCaP cells; format: cell-based
Procedure: Microarray analysis was carried out on RNAs prepared from three bioreplicate cultures for the no ligand and R1881 treatments.
In order to identify androgen-regulated genes in LNCaP cells, we have performed gene expression microarray profiling using the Applied Biosystems Genome Survey Microarray V2.0. […] These genes include known androgen-responsive genes, including PSA (KLK3), KLK2, DRG-1 and TMPRSS2.
Detailed time course studies were undertaken to determine the time of androgen treatment for optimal expression of androgen-responsive genes (PSA and DRG-1) in the LNCaP cells (FIG. 1A-D). On the basis of these studies, RNA from […] bio-replicate cultures were prepared from LNCaP cells treated with androgen for 24 hours, as well as the no ligand control. The RNAs were subjected to RNA quality assays and validated by real-time RT-PCR for two control genes (GAPDH and RPLPO) and the androgen regulated genes PSA, DRG-1 and GREB-1. […] Three replicates from each treatment set were subsequently used for hybridisation to the Applied Biosystems (ABI) Human Genome Survey Microarray V2.0, which has probes for 29,098 genes, representing the most comprehensive coverage currently available for any human gene expression microarray platform. Raw data were quality assessed and filtered according to the recommendations supplied by the ABI1700 Data Analysis User Guide and the filtered data “vsn normalised” (4). Differential expression was assessed using liner models and empirical Bayes algorithms as described in (5). This analysis has robustly defined 456 probes whose expression was stimulated by androgen by two fold or greater, with positive lod scores (B values) for differential expression.

Compound	inhibition of GNMT (literature statement) (GNMT)	LNCaP cell growth (LNCaP cells [1]; R1881 1 nM, Sulphorhodamine B assay)	up-regulation of DRG-1 expression (LNCaP cells [2]; 24 hours androgen treatment) [fold]	up-regulation of KLK2 expression (LNCaP cells [2]; 24 hours androgen treatment) [fold]	up-regulation of PSA (KLK3) expression (LNCaP cells [2]; 24 hours androgen treatment) [fold]	up-regulation of TMPRSS2 expression (LNCaP cells [2]; 24 hours androgen treatment) [fold]	increase in GNMT gene expression (LNCaP cells [2]; within 24 hours of androgen treatment) [fold]	effect on androgen-stimulated growth of LNCaP cells (LNCaP cells [1]; 1 nM R1881 plus increasing concentrations of SAH, 6 days)
Nc1nc2ncc(CNc3ccc(C(=O)N[C@@H](CCC(=O)O)C(=O)O)cc3)nc2c(=O)[nH]1 [Folic acid]	allosteric inhibitor							
C[C@]1(O)CC[C@H]2[C@@H]3CCC4=CC(=O)CCC4=C3C=C[C@@]21C [R1881]		stimulated	24	32	30	16	16	
Nc1ncnc2c1ncn2[C@@H]1O[C@H](CSCC[C@H](N)C(=O)O)[C@@H](O)[C@H]1O [SAH, S-adenosyl-homocysteine]	relatively insensitive							potentiates the androgen-stimulated growth
